Key:
Assay in all cases: Cancer cell growth inhibition, Sulforhodamine B
Format in all cases: cell-based
A204 = settings: Homo sapiens; A204 (muscle), 72 hr; Responder Cell Lines
Method: (§1) The ability of select compounds to inhibit cell growth in various cancer cell lines are evaluated. […] The cell lines shown in Table 5 have reduced growth by at least 50% at 10 uM or lower over 72 hr treatment in growth media. The cell lines shown in Table 6 have reduced growth by at least 50% with an IC50 greater than 10 uM.
(§2) Six 10-fold compound dilutions are prepared in DMSO (e.g. 10 mM, 1 mM, 100 uM, 10 uM, 1 uM, and 0.1 uM). Single data points are acquired for each concentration. The final concentration of DMSO is 0.1%. The duration of the treatment is 72 hr. Growth inhibition is measured using Sulforhodamine B in a protein staining assay. Activity of the agents is determined by evaluation the following parameters: IC50, GI50, IC10, TGI, LC50, IC90, and GI90 (where these values can be calculated).

A2780 = settings: Homo sapiens; A2780 (ovary), 72 hr; Responder Cell Lines
Method: as §1, §2

A549 = settings: Homo sapiens; A549 (lung), 72 hr; Responder Cell Lines
Method: as §1, §2

ASPC1 = settings: Homo sapiens; ASPC1 (pancreas), 72 hr; Responder Cell Lines
Method: as §1, §2

BT20 = settings: Homo sapiens, BT-20; BT20 (breast), 72 hr; Non-Responder Cell Lines with IC50 >10 uM or Not Determined
Method: as §1, §2

HEK293 = settings: Homo sapiens; HEK293 (kidney), 72 hr; Responder Cell Lines
Method: as §1, §2

JAR = JAR (placenta), 72 hr; Responder Cell Lines
Method: as §1, §2

KASUMI-1 = settings: Homo sapiens; KASUMI-1 (hematological), 72 hr; Non-Responder Cell Lines with IC50 >10 uM or Not Determined
Method: as §1, §2

LOVO = settings: Homo sapiens; LOVO (colon), 72 hr; Responder Cell Lines
Method: as §1, §2

MDAMB436 = settings: Homo sapiens, MDA-MB-436; MDAMB436 (breast), 72 hr; Non-Responder Cell Lines with IC50 >10 uM or Not Determined
Method: as §1, §2

MG63 = settings: Homo sapiens, MG-63; MG63 (bone), 72 hr; Non-Responder Cell Lines with IC50 >10 uM or Not Determined
Method: as §1, §2

MINO = settings: Homo sapiens, 72 h, MINO (hematological)
Method: as §1, §2

OVCAR3 = settings: Homo sapiens, OVCAR-3, 72 h, OVCAR3 (ovary)
Method: as §1, §2

SAOS2 = settings: Homo sapiens, SAOS-2; SAOS2 (bone), 72 hr; Non-Responder Cell Lines with IC50 >10 uM or Not Determined
Method: as §1, §2

SKBR3 = settings: Homo sapiens, SK-BR-3, 72 h, SKBR3 (breast)
Method: as §1, §2

SKHEP1 = settings: Homo sapiens, SK-HEP1, 72 h, SKHEP1 (liver)
Method: as §1, §2

SKLMS1 = settings: Homo sapiens, SK-LMS-1; SKLMS1 (uterus), 72 hr; Non-Responder Cell Lines with IC50 >10 uM or Not Determined
Method: as §1, §2

SKMEL28 = settings: Homo sapiens, SK-MEL-28; SKMEL28 (skin), 72 hr; Non-Responder Cell Lines with IC50 >10 uM or Not Determined
Method: as §1, §2

SKMEL5 = settings: Homo sapiens, SK-MEL-5, 72 h, SKMEL5 (skin)
Method: as §1, §2

SKNSH = settings: Homo sapiens, SK-N-SH, 72 h, SKNSH (brain)
Method: as §1, §2

SKOV3 = settings: Homo sapiens, SK-OV-3; SKOV3 (ovary), 72 hr; Non-Responder Cell Lines with IC50 >10 uM or Not Determined
Method: as §1, §2

SU-DHL-10 = settings: Homo sapiens, SU-DHL10; SU-DHL-10 (hematological), 72 hr; Non-Responder Cell Lines with IC50 >10 uM or Not Determined
Method: as §1, §2

UMUC3 = settings: Homo sapiens; UMUC3 (bladder), 72 hr; Non-Responder Cell Lines with IC50 >10 uM or Not Determined
Method: as §1, §2

WSU-NHL = settings: Homo sapiens, 72 h, WSU-NHL (hematological)
Method: as §1, §2

[1] = Non-Responder Cell Lines with IC50 >10 uM or Not Determined

IC50 (A204): < 10 µM
IC50 (A2780): < 10 µM
IC50 (A549): < 10 µM
IC50 (ASPC1): < 10 µM
IC50 (BT20): > 10 µM
IC50 (JAR): < 10 µM
IC50 (KASUMI-1): > 10 µM
IC50 (LOVO): < 10 µM
IC50 (MDAMB436): > 10 µM
IC50 (MG63): > 10 µM
IC50 (MINO; [1]): > 10 µM
IC50 (MINO; Responder Cell Lines): < 10 µM
IC50 (OVCAR3; [1]): > 10 µM
IC50 (OVCAR3; Responder Cell Lines): < 10 µM
IC50 (SAOS2): > 10 µM
IC50 (SKBR3; [1]): > 10 µM
IC50 (SKBR3; Responder Cell Lines): < 10 µM
IC50 (SKHEP1; [1]): > 10 µM
IC50 (SKHEP1; Responder Cell Lines): < 10 µM
IC50 (SKLMS1): > 10 µM
IC50 (SKMEL28): > 10 µM
IC50 (SKMEL5; [1]): > 10 µM
IC50 (SKMEL5; Responder Cell Lines): < 10 µM
IC50 (SKNSH; [1]): > 10 µM
IC50 (SKNSH; Responder Cell Lines): < 10 µM
IC50 (SKOV3): > 10 µM
IC50 (SU-DHL-10): > 10 µM
IC50 (UMUC3): > 10 µM
IC50 (WSU-NHL; [1]): > 10 µM
IC50 (WSU-NHL; Responder Cell Lines): < 10 µM
SMILES: CC(C)(O)c1cc(-c2csc(-c3ccc(C(=O)N4CCC(O)CC4)cc3Cl)c2)ccn1 [Compound 1, (3-chloro-4-(4-(2-(2-hydroxypropan-2-yl)pyridin-4-yl)thiophen-2-yl)phenyl)(4-hydroxypiperidin-1-yl)methanone]
IC50 (HEK293): < 10 µM

From patent publication US20220356170A1, “SREBP INHIBITOR COMPRISING A THIOPHENE CENTRAL RING” (Capulus Therapeutics, LLC, priority 2019, published 2022)
